Experimental data taken from ChEMBL document CHEMBL3044774, “Synthesis of D-glucosamine quaternary ammonium derivatives and evaluation of their antifungal activity together with aminodeoxyglucose derivatives against two wood fungi Coriolus versicolor and Poria placenta: structure-activity relationships” (2011).

Columns and labels:
Assay type in all cases: functional
[1] = tested on: Trametes versicolor; assay: Antifungal activity against Trametes versicolor Quel. CTB 863-A assessed as mycelial growth inhibition at 1.5 x 10^-4 mol/ml after 9 days relative to control
[2] = tested on: Poria; assay: Antifungal activity against Poria placenta FPRL 280 assessed as mycelial growth inhibition at 0.75 x 10^-4 mol/ml after 9 days relative to control
[3] = tested on: Poria; assay: Antifungal activity against Poria placenta FPRL 280 assessed as mycelial growth inhibition at 0.5 x 10^-4 mol/ml after 9 days relative to control
[4] = tested on: Trametes versicolor; assay: Antifungal activity against Trametes versicolor Quel. CTB 863-A assessed as mycelial growth inhibition at 1 x 10^-4 mol/ml after 9 days relative to control

Structure (SMILES)	growth inhibition (GI) [1]	growth inhibition (GI) [2]	growth inhibition (GI) [3]	growth inhibition (GI) [4]
CC(=O)OC[C@H]1OC(OC(C)=O)[C@H](N(C)C)[C@@H](OC(C)=O)[C@@H]1OC(C)=O (stereo partly specified)	34.9%	48.2%	–	–
N[C@@H]1O[C@H](CO)[C@@H](O)[C@H](O)[C@H]1O	82.4%	100%	81.6%	50.6%
N[C@H]1[C@H](O)[C@@H](CO)OC(O)[C@@H]1O (stereo partly specified)	14.9%	26.7%	18.4%	0%
NC[C@H]1O[C@@H](O)[C@H](O)[C@@H](O)[C@@H]1O	19.2%	31.7%	27.1%	6.7%
CC(=O)OC[C@H]1OC(OC(C)=O)[C@H]([N+](C)(C)C)[C@@H](OC(C)=O)[C@@H]1OC(C)=O (stereo partly specified)	45.9%	74.1%	–	–
CCN[C@H]1C(OC(C)=O)O[C@H](COC(C)=O)[C@@H](OC(C)=O)[C@@H]1OC(C)=O (stereo partly specified)	53.7%	–	–	–
CC[N+](C)(C)[C@H]1C(OC(C)=O)O[C@H](COC(C)=O)[C@@H](OC(C)=O)[C@@H]1OC(C)=O (stereo partly specified)	74.9%	80%	–	–
CCN[C@H]1C(O)O[C@H](CO)[C@@H](O)[C@@H]1O (stereo partly specified)	40.4%	47.1%	–	–
CC[N+](C)(C)[C@H]1C(O)O[C@H](CO)[C@@H](O)[C@@H]1O.O=S(=O)([O-])O (stereo partly specified)	64.4%	77.2%	–	–
CC(=O)OC[C@H]1OC(OC(C)=O)[C@H](NC2CCCCC2)[C@@H](OC(C)=O)[C@@H]1OC(C)=O (stereo partly specified)	87.9%	91.8%	–	–
CC(=O)OC[C@H]1OC(OC(C)=O)[C@H]([N+](C)(C)C2CCCCC2)[C@@H](OC(C)=O)[C@@H]1OC(C)=O (stereo partly specified)	100%	100%	–	–
N[C@H]1C(O)O[C@H](CO)[C@@H](O)[C@@H]1O (stereo partly specified) [GLUCOSAMINE]	11%	25.9%	10.2%	0%
